Results taken from patent US20070027181A1, “Benzylisoquinoline derivative- or bisbenzylisoquinoline derivative-containing psychotropic agent, analgesic and/or antiphlogistic, and health food” (EDUCATION CENTER OF TRADITIONAL, priority 2004, published 2007).

What was measured:
Format in all cases: in vivo, Male ICR mice
mice [1] = assay: locomotor activity (ultromotivity) test, evaluation of sedative action
Procedure: (§1) In the following Examples, all extracts and drugs used were dissolved in physiological saline before use for i.p. administration and the dose was 0.1 ml of physiological saline per 10 g of mouse body weight in either case. All extracts and drugs were suspended in physiological saline containing 1% sodium carboxymethylcellulose before use for oral administration and the dose was 0.1 ml of 1% sodium carboxymethylcellulose-containing physiological saline suspension per 10 g of mouse body weight in either case. Male ICR mice (Japan SLC) having a body weight of 25 to 30 g were used in the tests below unless otherwise stated, and were fed in advance at a room temperature of 23±1° C. and a relative humidity of 55±5% in the environment of a cycle of 12-hour-light from 7 a.m. to 7 p.m. and 12-hour-dark from 7 p.m. to 7 a.m. for 3 to 5 days. The mice were allowed to have water and feed freely.
Twenty five mice were grouped into five groups each having five mice, to which 5 mg/kg of N-methylcoclaurine hydrochloride (treatment group 1-1: i.p. administration), 50 mg/kg of neferine hydrochloride (treatment group 1-2: oral administration, and treatment group 1-3: i.p. administration), 50 mg/kg of liensinine hydrochloride (treatment group 1-4: oral administration), or physiological saline (negative control group 1-1: i.p. administration) was administered. The ultromotivity of the mice was analyzed by using a locomotor activity monitoring system (NS-AS01, Neuroscience Inc.). The ultromotivity measurements were performed at an interval of 5 minutes for 60 minutes, and the ultromotivity was judged from the count at each measuring time.
Similar tests were conducted by i.p. administration of 25 mg/kg of N-norarmepavine (treatment group 1-5, n=6), 25 mg/kg of O,O-dimethylcoclaurine (treatment group 1-6, n=5), 10 mg and 25 mg/kg of armepavine (respectively, treatment group 1-7, n=6, and treatment group 1-8, n=6), 10 mg and 25 mg/kg of O-methylarmepavine (respectively, treatment group 1-9, n=6, and treatment group 1-10, n=6), and physiological saline (negative control group 1-2, n=5). The ultromotivity measurements were performed at an interval of five minutes for 60 minutes, and the ultromotivity was subjected to a significant difference test (Tukey's method) by using the counts at respective measuring times.
Tests were performed by using mice administered intraperitoneally with 25 mg/kg of neferine hydrochloride (treatment group 7-1, n=6), 25 mg/kg of liensinine hydrochloride (treatment group 7-2, n=6), and physiological saline (negative control group, n=6) as well as 5 mg/kg of diazepam (positive control group, n=6) and a rotarod equipment (Ugo Basile, Italy) and a locomotor activity monitoring system (NS-AS01, Neuroscience Inc.). The rotarod test was performed by placing a mouse on a rod having a diameter of 4 cm rotating at a speed of 8 rpm 15 minutes after drug administration and observing whether the mouse can stay on the rod without falling for three minutes. The individuals that had fallen from the rotating rod in the period of 3 minutes were judged that they are with motor coordination disorder. […] In addition, the ultromotivity measurements were performed at an interval of five minutes for 60 minutes, and the ultromotivity results were subjected to a significant difference test (Tukey's method) by using the counts at respective measuring times.

mice [2] = assay: acetic acid-induced writhing test
Procedure: as §1
An acetic acid-induced writhing test is a method wherein analgesic action of a compound is determined utilizing this. The number of this writhing is compared between a physiological saline-administered control group and a test drug-administered group, and suppression of the number of writhing by the test drug is investigated thereby assessing its analgesic action.
Seven to ten mice per group were used. Neferine hydrochloride was subcutaneously administered to mice at their back at a dose of 5 mg/kg, 10 mg/kg, 25 mg/kg, 50 mg/kg or 100 mg/kg and, after 15 minutes, a 0.6% by weight solution of acetic acid in water was intraperitoneally administered at 0.1 mL/10 g body weight. The number of writhing was counted every ten minutes for 30 minutes from immediately after acetic acid administration (0 to 10 min, 10 to 20 min, 20 to 30 min). In addition, the total number of writhing for 30 minutes from immediately after acetic acid administration was also obtained. Regarding the resulting measurements, a significant difference test was performed by a Dunnet multiple comparison test method.
According to the same manner as in acetic acid-induced writhing test-1 except that acetic acid was intraperitoneally administered 30 minutes after subcutaneous administration of neferine in the aforementioned acetic acid-induced writhing test-1, an acetic acid-induced writhing test was performed. However, the dose of neferine was only 50 mg/kg.
According to the same manner as in the acetic acid-induced writhing test-1 except that acetic acid was intraperitoneally administered 30 minutes after oral administration of neferine in the aforementioned acetic acid-induced writhing test-1, an acetic acid-induced writhing test was performed. However, five to six mice per group were used. The dose of neferine was 10 mg/kg and 50 mg/kg. Further, aspirin was used as a positive control drug. The dose of aspirin was 50 mg/kg.
(§2) According to the same manner as in acetic acid-induced writhing test-1 except that armepavine was used in place of neferine in the aforementioned acetic acid-induced writhing test-1, an acetic acid-induced writhing test was performed. However, the dose of armepavine was 5 mg/kg and 10 mg/kg.
as §2, with “O-methylarmepavine” for “armepavine”

mice [3] = assay: rotarod test (motor coordination); details: 5 mg/kg i.p., n=6, 15 minutes after administration, 8 rpm, three minutes
Procedure: as §1
Tests were performed by using mice administered intraperitoneally with 25 mg/kg of neferine hydrochloride (treatment group 7-1, n=6), 25 mg/kg of liensinine hydrochloride (treatment group 7-2, n=6), and physiological saline (negative control group, n=6) as well as 5 mg/kg of diazepam (positive control group, n=6) and a rotarod equipment (Ugo Basile, Italy) and a locomotor activity monitoring system (NS-AS01, Neuroscience Inc.). […]

mice [4] = assay: formalin pad test; details: 10 mg/kg i.p. 15 minutes before formalin
Procedure: as §1
A formalin pad test is a method in which, when formalin is subcutaneously administered to a pad of a mouse, the mouse causes licking, and analgesic action of a test drug is determined by utilizing this. Suppression of licking in a test drug-administered group was investigated relative to a physiological saline-administered control group, and analgestic action was evaluated.
Six mice per group were used. Neferine hydrochloride was intraperitoneally administered at a dose of 25 mg/kg, 50 mg/kg or 100 mg/kg and, after fifteen minutes, 20 μl of a 0.2% by weight formalin aqueous solution was subcutaneously administered to a right hind paw pad. After formalin administration, licking was regarded as a provisional pain reaction, and a licking sustaining time in a first phase from immediately after formalin administration to five minutes after formalin administration and in a second phase from 15 minutes to 30 minutes after formalin administration was measured. Regarding the resulting measurements, a significant difference test was performed by a Dunnet multiple comparison test method.
According to the same manner as in Example 13 except that 10 mg/kg of O-methylarmepavine was intraperitoneally administered in place of neferine, a formalin pad test was performed.

mice [5] = assay: histamine-induced paw edema test; details: 10 mg/kg i.p. 15 minutes before histamine 10 μg; 12 minutes after histamine
Procedure: as §1
Six mice per group were used. […] The thickness of the right hind paw was measured immediately before histamine administration and 12 minutes after histamine administration. The thickness immediately before administration was subtracted from the thickness of the paw after histamine administration, and this was adopted as a thickness of paw edema. As apparent from TABLE 18, paw edema due to histamine was suppressed by neferine. […]

[6] = 50 mg/kg oral 30 minutes before acetic acid
[7] = 5 mg/kg s.c. 15 minutes before acetic acid
[8] = 10 mg/kg s.c. 15 minutes before acetic acid

| SMILES | Number of writhing 0-10 min. (mice [2]; [7]) | Number of writhing 0-30 min. (mice [2]; [7]) | Number of writhing 10-20 min. (mice [2]; [7]) | Number of writhing 20-30 min. (mice [2]; [7]) | Number of writhing 0-10 min. (mice [2]; [8]) | Number of writhing 0-30 min. (mice [2]; [8]) | Number of writhing 10-20 min. (mice [2]; [8]) | Number of writhing 20-30 min. (mice [2]; [8]) | also measured |
| --- | --- | --- | --- | --- | --- | --- | --- | --- | --- |
| COc1cc2c(cc1OC)[C@@H](Cc1ccc(O)c(Oc3cc4c(cc3OC)CCN(C)[C@@H]4Cc3ccc(O)cc3)c1)N(C)CC2 [liensinine] |  |  |  |  |  |  |  |  | Ultromotivity (count) 30 minutes (mice [1]; 50 mg/kg oral): 600 count; Ultromotivity (count) 60 minutes (mice [1]; 50 mg/kg oral): 800 count |
| COc1cc2c(cc1O)[C@@H](Cc1ccc(O)cc1)N(C)CC2 [N-methylcoclaurine] |  |  |  |  |  |  |  |  | sedative activity compared with neferine and liensinine (mice [1]; 5 mg/kg i.p. versus 50 mg/kg of the bisbenzylisoquinolines): extremely higher activity; Ultromotivity (count) 30 minutes (mice [1]; 5 mg/kg i.p.): 250 count; Ultromotivity (count) 60 minutes (mice [1]; 5 mg/kg i.p.): 250 count |
| CC(=O)Oc1ccccc1C(=O)O [aspirin, reference compound] |  |  |  |  |  |  |  |  | Number of writhing 0-10 min. (mice [2]; [6]): 10.8 ± 3.41; Number of writhing 0-30 min. (mice [2]; [6]): 3.34 ± 5.35; Number of writhing 10-20 min. (mice [2]; [6]): 15.2 ± 1.83; Number of writhing 20-30 min. (mice [2]; [6]): 7.4 ± 1.23 |
| COc1cc2c(cc1OC)C(Cc1ccc(O)cc1)N(C)CC2 (centres unmarked) [armepavine] | 19.0 ± 3.21 | 41.7 ± 5.24 | 14.7 ± 1.92 | 9.4 ± 1.81 | 8.6 ± 1.41 | 24.6 ± 4.23 | 10.7 ± 2.24 | 5.3 ± 1.39 |  |
| CN1C(=O)CN=C(c2ccccc2)c2cc(Cl)ccc21 [diazepam] |  |  |  |  |  |  |  |  | Number of individuals fallen (mice [3]): 5 |
| COc1ccc(C[C@@H]2c3cc(OC)c(OC)cc3CCN2C)cc1 [O-methylarmepavine] | 11.6 ± 1.41 | 30.2 ± 1.90 | 11.2 ± 2.25 | 7.4 ± 1.52 | 5.9 ± 1.73 | 13.3 ± 1.69 | 4.3 ± 1.19 | 3.1 ± 0.58 | Licking sustaining time (second) First phase (mice [4]; 0 to 5 minutes): 70.9 ± 11.24 s; Licking sustaining time (second) Second phase (mice [4]; 15 to 30 minutes): 126.9 ± 18.4 s; Thickness of paw edema (mm) (mice [5]): 0.37 ± 0.06 mm |
